Test results reported in patent US11299524B2, “KIF13B-derived peptide and method of inhibiting angiogenesis” (THE BOARD OF TRUSTEES OF THE UNIVERSITY OF ILLINOIS, priority 2016, dated 2022).

Experiments:
[1] = test system: choroidal neovascularization; assay: laser-induced choroidal neovascularization (CNV); assay type: in vivo, mouse; settings: eye drop, 2 μg/eye daily
Method: FIG. 5A and FIG. 5B show the effect of DUF2C5 treatment on laser-induced CNV. FIG. 5A, Dose-dependent effect of DUF2C5 was tested by intravitreal injection of DUF2C5 0.5 μg, 2 μg, and 10 μg after laser photocoagulation. Neovascularization was assessed by the area of ILB4-staining, and plotted in the graph (N=5 mice in each group, and 4 laser burns were induced in each mouse). Asterisks indicate p<0.05, One-way ANOVA. FIG. 5B, Effect of DUF2C5 as an eye drop was tested in CNV model. After laser photocoagulation, mice were treated daily with either control peptide (2 μg/eye) or DUF2C5 (2 μg/eye) for […]. Neovascularization was assessed by the area of ILB4-staining, and plotted in the graph (N=7 mice in each group, and 4 laser burns were induced in each mouse). Asterisks indicate p<0.05, t-test. […]
Choroidal neovascularization was evaluated by ocular coherence tomography (OCT) and fluorescein angiography at day 7 and 14. […]
The experiments were terminated at day 14 after taking images of OCT and angiography. […] The area of vascular leakage and CNV was quantified using confocal image of CNV staining for lectin B4 using MetaMorph software. Data was plotted and analyzed statistically with Prism 6 (Graph Pad, San Diego Calif.). […]
The effect of DUF2C5 as an eye drop was subsequently tested. […] Neovascularization was assessed by OCT, fluorescein angiography, and staining with ILB4.

PDGFRα = biological target: T1, PDGFRα (Homo sapiens, UniProt P16234); assay: pull-down on streptavidin beads followed by mass spec analysis; assay type: binding; settings: peptide immobilized on streptavidin beads
T1 construct: endogenous in cells
Method: (§1) Additionally, the sequence of DUF2C5 is highly conserved in mammalian KIF13B. […] To further test the specificity of DUF2C5, pull-down of proteins was conducted using DUF2C5 or control peptide (CT23) immobilized on streptavidin beads followed by mass spec analysis of the binding proteins. This analysis detected the presence of KIF13B, VEGFR2, and co-receptor NRP1 (number of hits were 28, 11, and 5, respectively). Tie2, Par1, S1PR1, and FGFR were not found. Other cargo for KIF13B (e.g., CentA, hDlg) were also not found. […] The affinity of each receptor tyrosine kinase was subsequently tested via surface plasmon resonance (SPR) with BIACORE (UIC, RRC), using DUF2C5 and CT23 on an avidin-coated chip, and recombinant cytosolic domain of kinases (Fisher Scientific).

PDGFRβ = biological target: T2, PDGFRβ (Homo sapiens, UniProt P09619); assay: as above; assay type: binding; settings: peptide immobilized on streptavidin beads
T2 construct: endogenous in cells
Method: as §1

EGFR = biological target: T3, EGFR (Homo sapiens, UniProt P00533); assay: as above; assay type: binding; settings: peptide immobilized on streptavidin beads
T3 construct: endogenous in cells
Method: as §1

HUVECs [2] = assay: scratch wound healing assay; assay type: cell-based, human
Method: (§2) Collagen invasion assay was performed as previously described (Kang, et al. (2011) J. Biol. Chem. 286:42017-26). In vitro capillary network formation on […] (BD Biosciences, San Jose, Calif.) and scratch wound healing assay were performed as previously described (Humtsoe, et al. (2010) Mol. Cell Biol. 30:1593-1606). Fibrin gel sprouting assay was performed as described by Nakatsu & Hughes ((2008) Methods Enzymol. 443:65-82). VEGF (2.2 nmol/L) stimulation was used for all in vitro angiogenesis assays. Transwell migration assay was performed as described by Kaplan, et al. ((2011) Free Radical Res. 45:1124-35) using VEGF (4.4 nmol/L), sphingosine-1-phosphate (S1P) (1 μmol/L), or basic fibroblast growth factor (bFGF) (50 ng/mL) in the presence or absence of kinesin-derived angiogenesis inhibitor (DUF2C5; residues 1238-1260 of KIF13B) at varying concentrations.
EC migration in response to DUF2C5 was determined using the scratch wound healing assay. […] The […] migration assay was also employed to determine whether the inhibitory effect of DUF2C5 on EC migration was specific to VEGF. HUVECs were placed in the […] chamber with or without DUF2C5 or CT23. […] PBS and CT23 had no effect on EC migration induced by all stimuli.

HUVECs [3] = assay: VEGF-induced proliferation, WST-1 assay; assay type: cell-based, human; settings: 3 μmol/L
Method: VEGF-induced proliferation and viability of HUVECs were assessed by the WST-1 assay (Roche) as previously described (Cai, et al. (2006) Microvasc. Res. 71:20-31; Jones, eta 1. (2005) Br. J. Pharmacol. 145:1093-102). […] Then HUVECs were stimulated with VEGF (2.2 nmol/L), with and without DUF2C5 (1, 3, and 10 μmol/L), or negative control peptide (CT23, 3 μmol/L) for 48 hours to test VEGF-induced proliferation by WST-1 assay in a 96-well format.
The effects of DUF2C5 on VEGF-induced proliferation were subsequently determined by the WST-1 assay.

HUVECs [4] = assay: VEGF-induced capillary network formation on […] in vitro; assay type: cell-based, human; settings: synthetic peptide added
Method: as §2
To test the bioactivity of the truncated mutant of KIF13B, DUF2C was expressed by lentivirus vector in HUVECs. […] The collagen invasion system (Kang, et al. (2011) J. Biol. Chem. 286:42017-42026) was used as another angiogenesis assay to test the peptides. After infection with control lentivirus, FLAG-DUF2C, or FLAG-DUF2, HUVECs were seeded on collagen gels. Cell invasion in response to proangiogenic stimuli SIP and VEGF in the gel was monitored for up to 24 hours.
Bioactivities in two-dimensional capillary network formation assay were assessed in HUVECs expressing KIF13B truncated mutants or vector controls. HUVECs were infected with lentiviruses encoding FLAG-C2, -C3, -C5, -C8, -C9, or vector.
Changes in VEGF-induced network formation assay were assessed in […] plugs. […] VEGF-induced EC sprouting was also determined by 3-dimensional culture of HUVECs on beads (Nakatsu & Hughes (2008) Methods Enzymol. 443:65-82).

T1 sequence (P16234 24-1089): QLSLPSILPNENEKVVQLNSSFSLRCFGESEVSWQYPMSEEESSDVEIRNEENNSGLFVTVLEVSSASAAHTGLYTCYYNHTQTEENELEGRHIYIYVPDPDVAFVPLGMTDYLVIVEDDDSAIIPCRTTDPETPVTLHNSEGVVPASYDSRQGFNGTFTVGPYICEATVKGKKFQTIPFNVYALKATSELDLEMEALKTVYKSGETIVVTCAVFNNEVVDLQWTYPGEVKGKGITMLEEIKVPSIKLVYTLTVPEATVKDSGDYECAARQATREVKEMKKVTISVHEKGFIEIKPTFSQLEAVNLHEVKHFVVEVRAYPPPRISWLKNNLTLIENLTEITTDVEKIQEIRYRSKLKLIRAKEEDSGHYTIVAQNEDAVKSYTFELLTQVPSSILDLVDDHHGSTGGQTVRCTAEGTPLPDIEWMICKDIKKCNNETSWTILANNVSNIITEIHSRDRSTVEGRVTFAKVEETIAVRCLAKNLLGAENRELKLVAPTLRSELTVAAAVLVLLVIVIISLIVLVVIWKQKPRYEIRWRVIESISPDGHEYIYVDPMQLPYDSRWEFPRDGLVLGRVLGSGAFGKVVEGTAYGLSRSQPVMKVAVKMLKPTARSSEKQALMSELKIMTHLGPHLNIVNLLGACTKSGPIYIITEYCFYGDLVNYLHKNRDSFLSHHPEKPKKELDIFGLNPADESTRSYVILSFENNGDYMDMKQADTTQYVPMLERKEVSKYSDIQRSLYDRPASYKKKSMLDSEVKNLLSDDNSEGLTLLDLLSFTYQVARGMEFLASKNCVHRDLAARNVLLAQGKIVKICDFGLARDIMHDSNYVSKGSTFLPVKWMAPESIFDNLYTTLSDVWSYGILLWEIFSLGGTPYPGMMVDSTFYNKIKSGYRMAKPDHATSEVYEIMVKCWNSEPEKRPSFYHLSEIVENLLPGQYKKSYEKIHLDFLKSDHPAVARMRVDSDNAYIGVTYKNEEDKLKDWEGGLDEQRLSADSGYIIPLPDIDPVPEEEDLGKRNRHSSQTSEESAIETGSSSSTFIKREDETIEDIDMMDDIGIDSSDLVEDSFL
T2 sequence (P09619 33-1106): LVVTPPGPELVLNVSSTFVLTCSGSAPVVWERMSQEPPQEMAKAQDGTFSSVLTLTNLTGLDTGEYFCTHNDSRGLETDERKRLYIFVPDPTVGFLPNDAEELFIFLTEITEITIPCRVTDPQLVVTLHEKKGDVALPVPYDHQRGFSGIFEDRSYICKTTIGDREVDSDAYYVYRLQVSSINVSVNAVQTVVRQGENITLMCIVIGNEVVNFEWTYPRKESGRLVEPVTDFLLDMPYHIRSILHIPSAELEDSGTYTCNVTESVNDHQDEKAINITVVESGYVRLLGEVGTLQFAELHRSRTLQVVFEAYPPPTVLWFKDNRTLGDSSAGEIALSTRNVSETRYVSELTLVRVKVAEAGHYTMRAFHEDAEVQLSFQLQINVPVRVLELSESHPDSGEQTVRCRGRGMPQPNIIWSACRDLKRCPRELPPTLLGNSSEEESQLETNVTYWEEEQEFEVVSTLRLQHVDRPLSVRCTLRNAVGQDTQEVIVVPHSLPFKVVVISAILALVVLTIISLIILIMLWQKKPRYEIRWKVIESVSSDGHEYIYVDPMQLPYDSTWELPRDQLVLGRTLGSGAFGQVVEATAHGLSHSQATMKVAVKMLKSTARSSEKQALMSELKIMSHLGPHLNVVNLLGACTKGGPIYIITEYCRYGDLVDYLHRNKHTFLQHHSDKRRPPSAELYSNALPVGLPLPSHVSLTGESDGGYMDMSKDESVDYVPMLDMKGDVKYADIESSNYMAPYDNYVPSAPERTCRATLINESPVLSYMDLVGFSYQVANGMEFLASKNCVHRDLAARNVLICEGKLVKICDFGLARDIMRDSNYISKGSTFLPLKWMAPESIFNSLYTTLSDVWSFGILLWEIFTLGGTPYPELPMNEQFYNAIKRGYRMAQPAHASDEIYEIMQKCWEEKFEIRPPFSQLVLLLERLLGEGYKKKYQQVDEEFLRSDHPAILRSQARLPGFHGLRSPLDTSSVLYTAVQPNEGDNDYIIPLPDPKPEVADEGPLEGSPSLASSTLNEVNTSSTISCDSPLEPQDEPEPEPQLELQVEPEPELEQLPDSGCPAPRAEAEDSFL

PDGFRα among binding proteins, number of hits (PDGFRα): did not interact | PDGFRβ among binding proteins, number of hits (PDGFRβ): did not interact | EGFR among binding proteins, number of hits (EGFR): did not interact
Substance: CT23: negative control, C-terminal 23-amino acid peptide, residues 1650 to 1672 of KIF13B (RVRASELRSFSRMLAGDPGCSPG)
neovascularization (laser-induced CNV) [1]: did not have any effect | VEGF-induced migration of HUVECs (wound closure) (HUVECs [2]): migrated and closed the wound | VEGF-induced proliferation (HUVECs [3]): had no effect | VEGF-induced network formation (HUVECs [4]): had no effect
